Values quoted from earlier work as cited in patent US11638429B2, “Hypochlorous acid disinfectant and its production method” (SUPER AQUA INTERNATIONAL CO., LTD., priority 2020, dated 2023).

Tested on: coliform
Conditions: versus hypochlorite ion (CLO—); FIG. 2, U.S. EPA

OCl [hypochlorous acid (HCLO), hypochlorous acid]
sterilization of hypochlorous acid (HCLO) relative to hypochlorite ion (CLO—): 80 times
